Data published in patent US9896697B2, “Defensin-encoding nucleic acid molecules derived from Nicotiana alata, uses therefor and transgenic plants comprising same” (HEXIMA LIMITED, priority 2001, dated 2018).

Tests used:
[1] = tested on: Fusarium oxysporum (f. sp. vasinfectum, isolate VCG 01111); assay: Fungal growth inhibition assay, 96-well microtitre plate, absorbance at 595 nm; format: cell-based; conditions: 20 μg/mL purified protein; FIGS. 12B and 12C
Description: (§1) The 96-well microtitre plate assay of Broekaert et al. (EMS Microbiology Letters 69:55-60, 1990) was used to test the effect of the purified NaPdf1 protein on the growth of Botrytis cinerea (isolated from rosemary, Brunswick, Victoria), Fusarium oxysporum (f. sp. dianthi, Race 2; isolated from carnation by Florigene Limited, Collingwood, Victoria) and Fusarium oxysporum (f. sp. vasinfectum, isolate VCG 01111 from cotton; provided by the Department of Primary Industries, Queensland). Fungal spores were isolated from sporulating cultures growing on half strength potato dextrose agar (PDA, Difco) or gamma-irradiated carnation leaves in water agar by the addition of sterile water and the use of a spreader. The suspension was filtered through two layers of autoclaved muslin and the spore concentration in the filtrate determined using a haemocytometer. The spores were used directly or after storage in sterile 20% v/v glycerol solution at −20° C.
(§2) Antifungal assays were performed in 96-well flat-bottomed microtitre plates (Greiner) under aseptic conditions. The spore concentration was adjusted to about 2×10^4 spores/mL in PDB and 80 μL of this suspension was added to each well to which 20 μL of filter sterilised (0.22 μm syringe filter, Millipore) test protein (10, 50 or 100 μg/mL) or water was added. The purity and concentration of each protein was confirmed before use by RP-HPLC analysis. Sterile water and ovalbumin (Sigma) were added to other wells as negative controls, and a mixture of the antifungal proteins α- and β-purothionin (Sigma) was used as a positive control. The plates were shaken on an orbital shaker for a few seconds to mix the spores and the test proteins. The plates were allowed to stand for 30 min to allow the spores to sediment before the optical density of the plates were determined using a Spectra Max Pro 250 microplate reader (Molecular Devices) at 595 nm absorbance. […] An increase in absorbance relative to the initial reading was correlated with the growth of fungal hyphae and this was plotted against time. […]

Botrytis cinerea = assay: as above; format: cell-based; conditions: 20 μg/mL purified protein; FIG. 11
Description: as §1, §2

[2] = tested on: Fusarium oxysporum (f. sp. dianthi, Race 2); assay: as above; format: cell-based; conditions: 20 μg/mL purified protein; FIG. 12A
Description: as §1, §2

H. armigera larvae = assay: Insect feeding trial with artificial cotton leaf diet; format: in vivo; conditions: 0.3% (w/v) test protein in artificial diet; casein control; FIG. 16
Description: Table 2 Artificial diet ingredients used in the feeding trial of H. armigera [table] Helicoverpa punctigera larvae came from a colony collected in Victoria, Australia and maintained in culture at La Trobe University, Melbourne and H. armigera were obtained from a colonies maintained at La Trobe University, Melbourne or the Australian Cotton Research Institute, at the Entomology Department of the Commonwealth Scientific and Industrial Research Organisation in Narrabri, NSW. To confirm that the insecticidal activity was due to the defensin and not to upregulation of other endogenous defense molecules, a feeding trial using artificial cotton leaf diet containing purified defensin from floral buds was performed. The 6 kDa cysteine rich proteinase inhibitors (NaPI) from N. alata (Atkinson et al., Plant Cell 5: 203-213, 1993) were used as positive control and casein was used as a negative control. Feeding trials were conducted as described in Heath et al. (J. Insect Physiology 43: 833-842, 1997 except that the artificial diet was based on cotton leaves (Table 2). Thirty milligram of defensin was purified from floral buds of N. alata and used in artificial diets at two concentrations. H. armigera larvae fed on defensin at 0.3% (w/v) were 40% smaller than controls (FIG. 16) while larvae fed on NaPI at the same concentration were about 60% smaller than controls.

## NaPdf1: Mature floral defensin (47 amino acids, ~5.3 kDa) from Nicotiana alata, purified from floral buds (RECKTESNTFPGICITKPPCRKACISEKFTDGHCSKILRRCLCTKPC; listed as Nicotiana alata)
[1]
  growth inhibition of F. oxysporum f. sp. vasinfectum: effectiveness
Botrytis cinerea
  growth inhibition of B. cinerea: effectiveness
[2]
  growth inhibition of F. oxysporum f. sp. dianthi: effectiveness
H. armigera larvae
  larvae smaller than controls (mean weight): 40%
